The text below walks through data of patent publication US20180344725A1, “QUINOLONE CHALCONE COMPOUNDS AND USES THEREOF” (priority 2015, published 2018).

Molecules are shown by their SMILES.

Holding throughout (assay type): cell-based
One data set concerns KB-C-1. The experiment in a line: SRB-based cytotoxicity assay. Conditions: Homo sapiens, KBC-1; KB-C-1, multidrug naïve. How it is done: 1845B5 and MCF-10A non-cancer breast cell lines were cultured in DME/F12 medium supplemented with 10% fetal bovine serum, antibiotics and growth factors. […] The human small cell lung carcinoma H69 cell line and its multidrug-resistant MRP1-overexpressing isogenic H69AR cell line were purchased from ATCC. […] H69 cells grow as large multi-cell aggregates, making it difficult to accurately count cell numbers. […] The IL-6 dependent bortezomib-resistant ANBL6-BR cell line was further supplemented with 1 ng/ml of IL-6. The MCF10AT1 and MCF10CA1a cell lines are isogenic to the MCF10A cell line, and obtained from Dr. Valerie Weaver at the Center for Bioengineering and Tissue Regeneration, UCSF, CA, USA. […] The drug-resistant cells were cultured in the absence of drug for at least one passage before carrying out experiments. All cells were maintained in a humidified incubator at 37° C. […] Cell line authentication was performed using short tandem repeat (STR) profiling. […] Some wells were treated with 100 μl of 10% trichloroacetic acid (TCA) as a negative control and sham (medium with dimethyl sulfoxide; DMSO) treated cells were used as a positive control. […] TCA was removed and cells were washed with cold tap water, and plate was air-dried, followed by addition of 50 μl of 0.4% SRB staining solution to each well. After 30 minutes incubation, SRB staining solution was removed. Cells were washed with 1% acetic acid solution, and then washed with tap water to remove unbound staining solution, followed by air-drying. 200 μl of 10 mM (pH10.5) trizma base buffer was added to each well to solubilise macromolecules. […] Cell growth (inhibition) was calculated by the following formula: % cells proliferation=[(AT-CT)/(ST-CT)]×100 wherein AT=absorbance of treated cells, CT=absorbance of negative control cells, and ST=absorbance of sham treated cells. […] CI values were determined from four independent experiments.

Another data set relates to UC3 (Bladder). Put plainly: SRB-based cytotoxicity assay. Conditions: 72 hours. The gist of the method: (§1)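 4,000-5,000 cells/well, 16 h pre-incubation; compound (DMSO) 72 h; 10% TCA fix 4 °C 1 h; 0.4% SRB 30 min, 1% acetic acid wash; 10 mM Tris pH 10.5; A540. IC50 by sigmoidal fit, n=2 biological × 4.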
In the next data set the test system is K562. Put plainly: SRB-based cytotoxicity assay. The note with it: Homo sapiens, Table 2. In a few lines: as §1
A further data set relates to HEK293T (kidney). The experiment in a line: SRB-based cytotoxicity assay. Conditions: Homo sapiens, HEK-293T, 72 hours. In a few lines:
as §1

For another data set, the system named is NCI-H1975 (lung). Put plainly: SRB-based cytotoxicity assay. The note with it: Homo sapiens, 72 hours. The gist of the method:
as §1

In another data set the test system is T98G (brain). The experiment in a line: SRB-based cytotoxicity assay. Conditions: Homo sapiens, 72 hours. The gist of the method: as §1
A further data set has as its system A549 (lung). Put plainly: SRB-based cytotoxicity assay. The note with it: Homo sapiens, 72 hours. The gist of the method: as §1
In another data set the test system is U87MG (brain). The experiment in a line: SRB-based cytotoxicity assay. Conditions: Homo sapiens, U-87 MG, 72 hours. In a few lines: as §1
The subject of another data set is HeLa cells. Put plainly: Western blotting (PARP cleavage, apoptosis). Conditions: by 24-hour post-treatment. How it is done: Exponentially growing cells were collected by centrifugation at 1,100 rpm (Allegra™ X-12 centrifuge, Beckman Coulter) at scheduled time points post-treatment. Cells were washed three times with PBS by centrifugation under the same conditions, followed by cell lysis for 10-15 minutes on ice in 100 μl Lysis buffer (150 mM NaCl, 5 mM EDTA, 1% triton X-100, 10 mM tris pH 7.4, 1 mM PMSF, 5 mM EDTA and 5 mM protease inhibitor). Cell extracts were centrifuged at 11,000 rpm (Allegra™ X-12 centrifuge, Beckman Coulter) for 10 minutes at 4° C. Supernatant was collected and the protein concentration was measured using a BCA assay kit according to the supplier's specifications (Thermo Fisher Scientific, Waltham, Mass.). Cell lysates were then diluted with 2× Iaemmli sample buffer and boiled for 5 minutes at 95-100° C. 30-40 μg protein was loaded on 8% or 10% polyacrylamide gel and resolved by electrophoresis. Proteins were then electronically transferred to a PVDF membrane for 75 minutes at 24 volts, followed by “blocking” with 5% skim milk for 1 hour. Proteins were incubated with primary antibody overnight at 4° C. in 0.1% TBST buffer containing 5% skim milk. The membrane was washed three times with 0.1% TBST buffer and incubated for 1 hour with secondary antibody in TBST buffer containing 5% skim milk. […]
Background: In western blotting, separated proteins are transferred to a membrane and probed.

Data set [1] in a line: SRB-based cytotoxicity assay. Conditions: human, MCF-10A cells (non-cancer breast cells); MCF10A; 31.25 nM; 72 hours; read-out: cell viability. In a few lines: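 Growth inhibition is measured by sulforhodamine B staining after a 72 h treatment with compound dilutions, with DMSO-only wells as the untreated reference and TCA-killed wells as background. IC50 is taken from sigmoidal curves.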

As a reminder, the IC50 is the concentration that inhibits the measured activity by half. On to `COc1ccccc1C(=O)/C=C/c1cc2ccccc2[nH]c1=O` [CTR-17, (E)-3-(3-(2-Methoxyphenyl)-3-oxoprop-1-enyl)quinolin-2(1H)-one], for which the IC50 in the data set with KB-C-1 came to 380 ± 70 nM; in the data set on UC3 (Bladder), 390 ± 30 nM; in the data set with K562, 150 ± 100 nM; in the data set with HEK293T (kidney), 420 ± 70 nM; with NCI-H1975 (lung), 600 ± 140 nM; in the data set with T98G (brain) it was 820 ± 90 nM. The IC50 with A549 (lung) was 410 ± 60 nM; in the data set with U87MG (brain) it was 760 nM.
Turning to `COc1ccc2[nH]c(=O)c(/C=C/C(=O)c3ccccc3OC)cc2c1` [CTR-20, (E)-6-Methoxy-3-(3-(2-methoxyphenyl)-3-oxoprop-1-enyl) quinolin-2(1H)-one], the IC50 in the data set on KB-C-1 was 100 ± 20 nM; in the data set on UC3 (Bladder), 120 ± 30 nM; in the data set on K562, 130 ± 20 nM; in the data set with HEK293T (kidney), 190 nM; in the data set on NCI-H1975 (lung) it was 390 ± 140 nM; with T98G (brain) it was 220 ± 100 nM. Besides, the IC50 in the data set with A549 (lung) worked out at 130 ± 40 nM; in the data set with U87MG (brain), 490 ± 130 nM.
For orientation: viability means a read-out of living cells in per cent, often relative to untreated cells. As to `COc1ccccc1C(=O)/C=C/c1cc2cccc(OC)c2[nH]c1=O` [CTR-21, (E)-8-methoxy-3-(3-(2-methoxyphenyl)-3-oxoprop-1-enyl) quinolin-2(1H)-one], in the data set with HeLa cells, the “concentration at which many cells underwent apoptosis (cleavage of PARP)” value was not below 15 nM. For the same compound, in data set [1], the viability at 72 h, 0.03125 µM is 26%.
For `CCOc1ccccc1C(=O)/C=C/c1cc2ccccc2[nH]c1=O` [CTR-32, (E)-3-(3-(2-ethoxyphenyl)-3-oxoprop-1-enyl)quinolin-2(1H)-one], in that order: not below 30 nM and 87%.
